Reference: patent US20230149537A1, “VACCINES, ADJUVANTS, AND METHODS OF GENERATING AN IMMUNE RESPONSE” (priority 2020, published 2023)

How the values were obtained:
[1] = system: T cell; set-up: species or system C57BL/6 mice; details: mouse, in vivo, ip
[2] = system: SARS-CoV-2 Spike; set-up: species or system C57BL/6 mice; details: mouse, in vivo, ip
[3] = system: SARS-CoV-2 Spike; set-up: species or system  mice; details: mouse, in vivo

## CCCCCCCCCCCC(=O)CC(=O)N[C@H](COCCCCCCCCCC)COP(=O)([O-])OCCNC(=O)NCCOP(=O)([O-])OC[C@@H](COCC[C@@H](CCCCCCC)OC(=O)CCCCCCCCCCC)NC(=O)CC(=O)CCCCCCCCCCC.[Na+].[Na+] [Group E6020]
[1]
  Th1-type T cell responses: significantly enhanced Th1-type T cell responses
[2]
  IgG profile (IgG2/IgG1): significant higher IgG2 than with Alum alone
[3]
  IgG1 and IgG2 Ab binding titers: increase in IgG2 production
